Earlier results in patent US20240299372A1, “Transdermal Drug Delivery Systems for Administration of a Therapeutically Effective Amount of Apixaban and Other Direct Oral Anticoagulants” (Pike Therapeutics Inc., priority 2023, published 2024).

Legend:
[1] = for Absolute oral bioavailability: oral administration; for bioavailability: oral, background statement on GI tract exposure
[2] = oral administration; literature refs [1-4]

Absolute oral bioavailability [1]	bleeding complications as reason for DOAC discontinuation [2]	bioavailability [1]	SMILES
approx. 50%	5.7-10.1%	–	COc1ccc(-n2nc(C(N)=O)c3c2C(=O)N(c2ccc(N4CCCCC4=O)cc2)CC3)cc1 [Apixaban, 1-(4-methoxyphenyl)-7-oxo-6-[4-(2-oxopiperidin-1-yl)phenyl]-4,5-dihydropyrazolo[3,4-c]pyridine-3-carboxamide]
approx. 34%	–	–	COc1ccc(NC(=O)c2ccc(C(=N)N(C)C)cc2)c(C(=O)Nc2ccc(Cl)cn2)c1 [Betrixaban, N-(5-chloropyridin-2-yl)-2-[[4-(N,N-dimethylcarbamimidoyl)benzoyl]amino]-5-methoxybenzamide]
3%-7	3.4-9.7%	6%	[H]/N=C(/N)c1ccc(NCc2nc3cc(C(=O)N(CCC(=O)O)c4ccccn4)ccc3n2C)cc1 [Dabigatran, 3-[[2-[(4-carbamimidoylanilino)methyl]-1-methylbenzimidazole-5-carbonyl]-pyridin-2-ylamino]propanoic acid]
approx. 62%	–	–	CN1CCc2nc(C(=O)N[C@@H]3C[C@@H](C(=O)N(C)C)CC[C@@H]3NC(=O)C(=O)Nc3ccc(Cl)cn3)sc2C1 [Edoxaban, N′-(5-chloropyridin-2-yl)-N-[(1S,2R, 4S)-4-(dimethylcarbamoyl)-2-[(5-methyl-6,7-dihydro-4H-[1,3]thiazolo[5,4-c]pyridine-2-carbonyl)amino]cyclohexyl]oxamide]
80%-100	16.8-24.5%	60-80%	O=C(NC[C@H]1CN(c2ccc(N3CCOCC3=O)cc2)C(=O)O1)c1ccc(Cl)s1 [Rivaroxaban, 5-chloro-N-[[(5S)-2-oxo-3-[4-(3-oxomorpholin-4-yl)phenyl]-1,3-oxazolidin-5-yl]methyl]thiophene-2-carboxamide]
